Experimental data published in US7915297B2, “Isoxazole derivatives and use thereof” (SK Holdings Co., Ltd., priority 2005, dated 2011).

Columns and labels:
[1] = tested on: Wnt/β-catenin signaling (β-catenin activity) in SW480 cell line; experiment: Cell-based Wnt agonist screening, TCF luciferase reporter, SW480 (TCF-FL); parameters: species or system human; details: Homo sapiens, % of LiCl (20 mM), 24 h, read-out: Max. Activity (%); for Emax at 30 µM: Con. 30 μM; for Emax at 60 µM: Con. 60 μM; for Emax at 120 µM: Con. 120 μM
From the text: (§1) In order to measure the in vitro activity of compounds of the present invention, two human cancer cell lines, HEK293 and SW480, which have intact Wnt signaling and show APC gene mutation in the Wnt signaling pathway, respectively, were used.
(§2) For evaluating the activity of wnt/β-catenin signaling in the cancer cell lines, gene as illustrated in FIG. 1 having β-catenin-binding sites of the Tcf/Lef transcriptional control protein (5 sites of TCF, 5X TCF) and having a fire fly luficerase as a marker protein ascertainable the activity of 5X TCF was introduced into the cells. Treatment with G418 led monoclones of the cell lines, in which the genes were permanently expressed, so as to construct a cell-based Wnt agonist screening system. […] For comparison with the activity of the isoxazole derivatives as Wnt agonists, lithium chloride (LiCl), acting as a positive control for the cell-based Wnt agonist screening system, was used to determine the expression level of the luciferase, and the results are shown in FIG. 3.
(§3) The cell lines, in which a cell-based Wnt agonist screening system was constructed, were cultured in RPMI 1640 media supplemented with penicillin-streptomycin (100 Units/mL) and heat-inactivated 5% fetal bovine serum under standard culture conditions (5% CO2, 37° C., 100% relative humidity). […] The suspension was diluted with the same medium to adjust the cell count to 8,000˜15,000 cells per well and was moved then in a 96-well microtiter plate. After being incubated for 24 hrs, the cells were treated with various concentrations of the isoxazole derivatives synthesized in Preparation Examples. Incubation for an additional 24 hours was followed by the quantitative analysis of luciferase activity using a Luciferase Assay kit (Promega, U.S.A.) according to the protocol described in the manual provided by the manufacturer. Data on the activities of the isoxazole derivatives thus synthesized are given in Tables 34 to 43, and are expressed as percentages relative to the activity of the positive control LiCl (20 mM), a well-known agonist of Wnt signaling.

[2] = tested on: Wnt/β-catenin signaling (β-catenin activity) in HEK293 cell line; experiment: Cell-based Wnt agonist screening, TCF luciferase reporter, HEK293 (TCF-FL); parameters: species or system human; details: Homo sapiens, HEK293, 24 h, % of LiCl (20 mM), 24 h, read-out: Max. Activity (%); for Emax at 30 µM: Conc. 30 μM; for Emax at 120 µM: Conc. 120 μM
From the text: as §1, §2, §3

Row | Structure (SMILES) | Emax at 30 µM [1] [%] | Emax at 30 µM [2] [%] | also measured
1 | O=C(Nc1ccccc1O)c1cc(-c2ccco2)on1 [Derivative (2), 5-furan-2-yl-isoxazole-3-carboxylic acid (2-hydroxy-phenyl)-amide] | < 20 | < 20 | 
2 | Nc1ccccc1NC(=O)c1cc(-c2ccco2)on1 [Derivative (3), 5-furan-2-yl-isoxazole-3-carboxylic acid (2-amino-phenyl)-amide] |  | < 20 | Emax at 40 µM ([1]; Con. 40 μM): 331%
3 | O=C(NCc1ccccc1)c1cc(-c2ccco2)on1 [Derivative (4), 5-furan-2-yl-isoxazole-3-carboxylic acid benzylamide] | < 20 | < 20 | 
4 | O=C(NCCc1ccccc1)c1cc(-c2ccco2)on1 [Derivative (5), 5-furan-2-yl-isoxazole-3-carboxylic acid phenethyl-amide] | 148 | < 20 | 
5 | O=C(NCCCc1ccccc1)c1cc(-c2ccco2)on1 [Derivative (6), 5-furan-2-yl-isoxazole-3-carboxylic acid (3-phenyl-propyl)-amide] |  | < 20 | Emax at 60 µM [1]: 322%
6 | O=C(NCc1ccccn1)c1cc(-c2ccco2)on1 [Derivative (7), 5-furan-2-yl-isoxazole-3-carboxylic acid (pyridin-2-ylmethyl)-amide] | < 20 | < 20 | 
7 | O=C(NCc1cccnc1)c1cc(-c2ccco2)on1 [Derivative (8), 5-furan-2-yl-isoxazole-3-carboxylic acid (pyridin-3-ylmethyl)-amide] | < 20 | < 20 | 
8 | O=C(NCc1ccncc1)c1cc(-c2ccco2)on1 [Derivative (9), 5-furan-2-yl-isoxazole-3-carboxylic acid (pyridin-4-ylmethyl)-amide] | < 20 | < 20 | 
9 | O=C(NCCc1ccccn1)c1cc(-c2ccco2)on1 [Derivative (10), 5-furan-2-yl-isoxazole-3-carboxylic acid (2-pyridin-2-yl-ethyl)-amide] |  |  | Emax at 120 µM [2]: 32%
10 | O=C(NCCc1cccnc1)c1cc(-c2ccco2)on1 [Derivative (11), 5-furan-2-yl-isoxazole-3-carboxylic acid (2-pyridin-3-yl-ethyl)-amide] |  | 61 | Emax at 60 µM [1]: 625%
11 | O=C(NCCc1ccncc1)c1cc(-c2ccco2)on1 [Derivative (12), 5-furan-2-yl-isoxazole-3-carboxylic acid (2-pyridin-4-yl-ethyl)-amide] |  |  | Emax at 60 µM ([2]; Conc. 60 μM): 109%
12 | O=C(NCCc1ccccc1F)c1cc(-c2ccco2)on1 [Derivative (16), 5-furan-2-yl-isoxazole-3-carboxylic acid [2-(2-fluoro-phenyl)-ethyl]-amide] | 327 | < 20 | 
13 | O=C(NCCc1cccc(F)c1)c1cc(-c2ccco2)on1 [Derivative (17), 5-furan-2-yl-isoxazole-3-carboxylic acid [2-(3-fluoro-phenyl)-ethyl]-amide] |  | < 20 | Emax at 60 µM [1]: 200%
14 | O=C(NCCc1ccc(F)cc1)c1cc(-c2ccco2)on1 [Derivative (18), 5-furan-2-yl-isoxazole-3-carboxylic acid [2-(4-fluoro-phenyl)-ethyl]-amide] |  | < 20 | Emax at 15 µM ([1]; Con. 15 μM): 149%
15 | COc1cccc(CCNC(=O)c2cc(-c3ccco3)on2)c1 [Derivative (20), 5-furan-2-yl-isoxazole-3-carboxylic acid [2-(3-methoxy-phenyl)-ethyl]-amide] |  | < 20 | Emax at 60 µM [1]: 528%
16 | O=C(NCCc1ccc(O)cc1)c1cc(-c2ccco2)on1 [Derivative (22), 5-furan-2-yl-isoxazole-3-carboxylic acid [2-(4-hydroxy-phenyl)-ethyl]-amide] |  | < 20 | 
17 | O=C(NCCc1cccc(O)c1)c1cc(-c2ccco2)on1 [Derivative (23), 5-furan-2-yl-isoxazole-3-carboxylic acid [2-(3-hydroxy-phenyl)-ethyl]-amide] | < 20 | < 20 | 

Row | Structure (SMILES) | Emax at 30 µM [1] [%] | Emax at 30 µM [2] [%] | also measured
18 | O=C(NCCc1ccc(Br)cc1)c1cc(-c2ccco2)on1 [Derivative (25), 5-furan-2-yl-isoxazole-3-carboxylic acid [2-(4-bromo-phenyl)-ethyl]-amide] |  | < 20 | Emax at 120 µM [1]: 223%
19 | Nc1ccc(CCNC(=O)c2cc(-c3ccco3)on2)cc1 [Derivative (26), 5-furan-2-yl-isoxazole-3-carboxylic acid [2-(4-amino-phenyl)-ethyl]-amide] | < 20 | < 20 | 
20 | O=C(NCCc1ccc([N+](=O)[O-])cc1)c1cc(-c2ccco2)on1 [Derivative (27), 5-furan-2-yl-isoxazole-3-carboxylic acid [2-(4-nitro-phenyl)-ethyl]-amide] | < 20 | < 20 | 
21 | O=C(NCCc1ccc2c(c1)OCO2)c1cc(-c2ccco2)on1 [Derivative (29), 5-furan-2-yl-isoxazole-3-carboxylic acid (2-benzo[1,3]dioxol-5-yl-ethyl)-amide] | < 20 | < 20 | 
22 | O=C(O)c1ccc(CCNC(=O)c2cc(-c3ccco3)on2)cc1 [Derivative (32), 4-{2-[(5-furan-2-yl-isoxazole-3-carbonyl)-amino]-ethyl}-benzoic acid] |  |  | Emax at 120 µM [1]: 789%; Emax at 120 µM [2]: 52%
23 | O=C(NCCn1ccnc1)c1cc(-c2ccco2)on1 [Derivative (33), 5-furan-2-yl-isoxazole-3-carboxylic acid (2-imidazol-1-yl-ethyl)-amide] |  |  | Emax at 120 µM [1]: 580%; Emax at 15 µM ([2]; Conc. 15 μM): 37%
24 | O=C(NCCCCn1ccnc1)c1cc(-c2ccco2)on1 [Derivative (34), 5-furan-2-yl-isoxazole-3-carboxylic acid (4-imidazol-1-yl-butyl)-amide] |  |  | Emax at 120 µM [1]: 120%; Emax at 120 µM [2]: 44%
25 | O=C(NCCOc1ccccc1)c1cc(-c2ccco2)on1 [Derivative (214), 5-furan-2-yl-isoxazole-3-carboxylic acid (2-phenoxy-ethyl)-amide] |  |  | Emax at 1 µM ([1]; Con. 1 μM): 161%
26 | O=C(NCCS(=O)(=O)c1ccccc1)c1cc(-c2cccs2)on1 [Derivative (219), 5-thiophen-2-yl-isoxazole-3-carboxylic acid (2-benzenesulfonyl-ethyl)-amide] | 113 |  | 
27 | O=C(c1cc(-c2cccs2)on1)N1CCN(c2ccccn2)CC1 [Derivative (221), (4-pyridin-2-yl-piperazin-1-yl)-(5-thiophen-2-yl-isoxazol-3-yl)-methanone] | 51 |  | 
28 | O=C(c1cc(-c2cccs2)on1)N1CCN(c2ncccn2)CC1 [Derivative (222), (4-pyrimidin-2-yl-piperazin-1-yl)-(5-thiophen-2-yl-isoxazol-3-yl)-methanone] | 57 |  | 
29 | O=C(c1cc(-c2cccs2)on1)N1CCC(N2CCCC2)CC1 [Derivative (223), (4-pyrrolidin-1-yl-piperidin-1-yl)-(5-thiophen-2-yl-isoxazol-3-yl)-methanone] | 50 |  | 
30 | O=C(OCc1cc(-c2ccco2)on1)n1ccnc1 [Derivative (251), imidazole-1-carboxylic acid 5-furan-2-yl-isoxazol-3-ylmethyl ester] |  |  | Emax at 120 µM [1]: 35%
31 | CC(=O)N1CCN(C(=O)OCc2cc(-c3ccco3)on2)CC1 [Derivative (252), 4-acetyl-piperazine-1-carboxylic acid 5-furan-2-yl-isoxazol-3-ylmethyl ester] |  |  | Emax at 120 µM [1]: 49%
32 | CN1CCN(C(=O)OCc2cc(-c3ccco3)on2)CC1 [Derivative (253), 4-methyl-piperazine-1-carboxylic acid 5-furan-2-yl-isoxazol-3-ylmethyl ester] |  |  | Emax at 10 µM ([1]; Con. 10 μM): 66%
33 | O=C(NCc1ccncc1)OCc1cc(-c2ccco2)on1 [Derivative (254), pyridin-4-ylmethyl-carbamic acid 5-furan-2-yl-isoxazol-3-ylmethyl ester] |  |  | Emax at 120 µM [1]: 37%
